Results filed as inconclusive are left out. Calls of active or inactive are those of the source. No rule for the calls is given here.
Biological target: Zinc finger protein mex-5 (Caenorhabditis elegans) (UniProt Q9XUB2)
Test: MEX-5 RNA-binding inhibition confirmation – biochemical, C. elegans, fluorescence polarization, dose retest (AID 449745);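 also: potency is for blocking Mex-5 binding to labeled TCR2 RNA like unlabeled competitor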
Settings: Mex-5 / TCR-2 RNA binding

Sequence of Zinc finger protein mex-5 (Caenorhabditis elegans) (Q9XUB2 whole entry, looked up): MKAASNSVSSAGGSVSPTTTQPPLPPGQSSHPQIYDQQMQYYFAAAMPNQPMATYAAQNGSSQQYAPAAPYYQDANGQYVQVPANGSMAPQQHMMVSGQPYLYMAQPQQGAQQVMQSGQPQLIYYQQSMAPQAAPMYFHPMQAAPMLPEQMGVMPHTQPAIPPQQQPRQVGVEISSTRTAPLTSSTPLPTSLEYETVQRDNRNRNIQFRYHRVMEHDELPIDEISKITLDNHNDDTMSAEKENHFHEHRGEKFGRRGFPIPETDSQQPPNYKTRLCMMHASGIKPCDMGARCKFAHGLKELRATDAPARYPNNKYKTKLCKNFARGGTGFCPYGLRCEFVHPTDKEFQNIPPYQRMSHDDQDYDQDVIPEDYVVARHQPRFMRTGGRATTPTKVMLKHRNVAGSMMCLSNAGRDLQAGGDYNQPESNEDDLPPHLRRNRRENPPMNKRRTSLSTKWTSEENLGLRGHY

Structure (SMILES) | AC50
CCOC(=O)C(=NC(C)C)NNc1cc(Cl)ccc1Cl | > 38 µM (inactive)
O=C(O)C1Nc2c(Cl)cc(Cl)cc2C2C=CCC12 (stereo not drawn) | 33.2 µM
CCC(C)[C@H](NC(=O)C1CC(=O)N(c2ccc3c(c2)OCO3)C1)C(=O)NC1CCCCC1 (stereo partly drawn) | 35.8 µM
C[n+]1c2ccccc2nc2ccc(NCCO)cc21 | 30.6 µM
Cc1cccc(-n2c(O)c(C=Nc3ccc4c(c3)OCO4)c3ccccc3c2=O)n1 | 39 µM
CC[n+]1c(/C=C/C=C/c2ccc(N(C)C)cc2)sc2ccccc21 | 18.8 µM
S=c1[nH]cnc2sc(Nc3ccccc3)nc12 | 27.4 µM
Cc1ccc(O)c(N=CC2=C(O)c3ccccc3C2=O)c1 | 24.8 µM
CC1=NOC(=O)/C1=C/c1ccc2c(c1)OCO2 | > 38 µM (inactive)
CCc1ccc[n+](-c2[nH]c(=O)sc2/C=N/NC([S-])=Nc2ccccc2)c1 | 4.63 µM
CNC(=O)c1c(NC(=O)c2ccc(S(=O)(=O)N(C)c3ccccc3)cc2)sc2c1CCN(C(C)C)C2 | 25.2 µM
CCOC(=O)c1ccc(NC(=O)C(=O)NCc2ccc(/C=C(/C#N)C(=O)NCCOC)o2)cc1 | > 38 µM (inactive)
Cc1cc(=O)n2[nH]c(=O)c(N=Nc3ccccc3)c2[nH]1 | < 0.3 µM
COc1ccc(OC)c(N2C(=O)NC(=O)/C(=C/c3ccc([N+](=O)[O-])s3)C2=O)c1 | 22 µM
CN(C)[C@@H]1C(=O)C(C(N)=O)=C(O)[C@@]2(O)C(=O)C3=C(O)c4c(O)cccc4[C@@](C)(O)[C@H]3[C@H](O)[C@@H]12 | 12 µM
COc1ccc(/C=C/C(=O)c2c(O)n(CCC3=CCCCC3)c(=O)[nH]c2=O)cc1 | > 38 µM (inactive)
COc1cc(C(=O)NC(=S)NNC(=O)c2cnccn2)cc(OC)c1OC | < 0.3 µM
O=c1[nH]c(/C=C/c2cccc3ccccc23)nc2ccccc12 | > 38 µM (inactive)
O=C(N/N=C/C1C(=O)NC(=S)N(c2ccccc2)C1=O)c1cc(Br)c(O)c(Br)c1 (stereo not drawn) | 13 µM
CCOc1ccc(/C=C/C(=O)c2c(O)c3ccccc3oc2=O)cc1 | > 38 µM (inactive)
CCOC(=O)c1c(/N=C/C2C(=O)NC(=S)NC2=O)sc2c1CCC2 | 12.8 µM
Cc1cccc(CS(=O)(=O)c2nnc([C@H](Cc3ccccc3)NC(=O)OC(C)(C)C)o2)c1 | > 38 µM (inactive)
O=c1c2ccccc2c(C=Nc2ccc(O)cc2)c(O)n1-c1nccs1 | > 38 µM (inactive)
CN1C(=O)/C(=C/c2ccco2)SC1=Nc1cccc(C(=O)O)c1 | > 38 µM (inactive)
O=C(O)CCCCCN1C(=O)C(O)=C(C(=O)/C=C/c2ccccc2)C1c1ccccc1[N+](=O)[O-] (stereo not drawn) | > 38 µM (inactive)

Structure (SMILES) | AC50
Cc1nnc(SCc2nc3sc4c(c3c(=O)[nH]2)CCCC4)n(N)c1=O | > 38 µM (inactive)
O=c1c2ccccc2nc(/C=C/c2ccc([N+](=O)[O-])o2)n1-c1ccc(O)cc1 | > 38 µM (inactive)
COc1cc2c(cc1N/C=C(\C#N)c1nc(-c3ccc(F)cc3)cs1)oc1ccccc12 | > 38 µM (inactive)
CC/C(=N/Nc1cccc(C)c1)c1cnnc(SC)n1 | > 38 µM (inactive)
O=C(NC(=S)NNS(=O)(=O)c1ccccc1)c1ccc([N+](=O)[O-])cc1 | 34.2 µM
CC1C(=O)NN=C1C(=O)N/N=C\c1ccc(O)cc1O (stereo not drawn) | 10.2 µM
COc1ccccc1-n1c(C)nc2cc(C(=O)NCc3ccc4c(c3)OCO4)ccc21 | > 38 µM (inactive)
Cc1cccc(C2Nc3ccccc3C(=O)N2NC(=O)c2ccc([N+](=O)[O-])cc2)n1 (stereo not drawn) | 8.47 µM
Cc1cc(C)c2c(c1)NC(C(=O)O)C1CC=CC21 (stereo not drawn) | 13.3 µM
CCc1ccc(N2C(=O)NC(=O)/C(=C\c3cccn3CCOc3ccc(C(C)C)cc3)C2=O)cc1 | > 38 µM (inactive)
COc1ccc(/C=C2\C(=O)NC(=S)N2C(=O)c2ccc(C)cc2)cc1 | > 38 µM (inactive)
NC1=NC(=O)/C(=C\C=C\c2ccccc2)S1 | > 38 µM (inactive)
CCN(CC)C(=O)Cn1c(=O)c2ccccc2n2c(=S)sc(-c3cccc(C)c3)c12 | 17.2 µM
CC(C)(C)C1CC=C2C(C#N)=C(N)C(C#N)(C#N)C(c3cccs3)C2C1 (stereo not drawn) | > 38 µM (inactive)
O=C(NNc1ncnc2c1cnn2-c1ccc(F)cc1)c1ccco1 | 15.9 µM
O=C(C1=NN(c2ccccc2)C2C(=O)N(c3ccccc3)C(=O)C12)c1ccccc1 (stereo not drawn) | 32 µM
Cc1cc[n+](-c2[nH]c(=O)sc2/C=N/NC([S-])=Nc2ccccc2)cc1 | 4.83 µM
O=C1NC(=O)/C(=C\c2ccc(O)cc2O)S1 | 11.5 µM
O=C(/C=C/c1ccc(O)c(O)c1)OC1C(O)CC(OC(=O)/C=C/c2ccc(O)c(O)c2)(C(=O)O)CC1O (stereo not drawn) | 15.9 µM
CCCCCC#CCC#CCC#CCC#CCCCC(=O)O | 6.71 µM
CN1CCN(c2nc(-c3ccccc3)nc(-c3ccccc3)c2C#N)CC1 | > 38 µM (inactive)
Cc1c(C(=O)NNC(=S)Nc2ccc(S(N)(=O)=O)cc2)oc2ccccc12 | 12.1 µM
CCc1cc(-c2n[nH]c(CCC(=O)O)c2-c2nc3ccccc3n2C)c(O)cc1O | 12.1 µM
COc1ccc(NC(=S)NNc2ccc(S(=O)(=O)Nc3ccccc3C(=O)O)cc2[N+](=O)[O-])cc1 | 6.28 µM
Cc1ccccc1Nc1cc2ccccc2c(=O)[nH]1 | 14.3 µM

Structure (SMILES) | AC50
O=C1c2ccccc2C(=O)N1/N=C/c1ccc(O)c(O)c1O | 0.798 µM
CCN(CC)c1ccc2cc(S(=O)(=O)c3ccc(C)cc3)c(=O)oc2c1 | 11.5 µM
CC1(C)CC2(CC(c3ccccc3F)c3ccc(O)c(O)c3O2)NC(=S)N1 (stereo not drawn) | 0.638 µM
Cc1oc2c(cc(NS(=O)(=O)c3ccc(C(C)C)cc3)c3ccccc32)c1C(=O)O | 5.37 µM
C#CCN1C(=O)S/C(=C\c2ccc(-c3ccc(Cl)c(C(=O)O)c3)o2)C1=O | > 38 µM (inactive)
O=C(O)/C=C/C(=O)NNc1ncnc2ccccc12 | 22.2 µM
CCOc1ccc(-c2c(C#N)c(N)nc3sc(C(=O)c4ccccc4)c(N)c23)cc1 | 35.5 µM
O=C(N/N=C/c1sc(=O)[nH]c1-[n+]1ccccc1)c1ccccc1[O-] | 30.2 µM
O=C1CCNc2ccc(-c3ccccc3)cc21 | 4.42 µM
Cc1cc2n(n1)C(c1c[nH]c3ccccc13)Nc1ccccc1-2 (stereo not drawn) | > 38 µM (inactive)
Cc1ccc(NC(=O)/C(C#N)=C(\N)C(Cl)(Cl)Cl)nc1 | 8.19 µM
Oc1ccc(Br)cc1C=Nc1cccn2cc(-c3ccccc3)nc12 | > 38 µM (inactive)
NC(=S)N/N=C/c1cccc(O)c1O | 21.2 µM
CCOC(=O)NC(=O)COC(=O)c1ccc(Sc2ncn[nH]2)c([N+](=O)[O-])c1 | 16.1 µM
O=C(CCN1C(=O)/C(=C/c2ccco2)SC1=S)Nc1ccc(C(=O)O)c(O)c1 | 30.6 µM
O=c1cc[nH]c2c1ccc1c(=O)cc[nH]c12 | 25 µM
O=C(C[n+]1ccc(C(=O)N/N=C/c2ccc(OCc3ccccc3)cc2)cc1)c1ccccc1 | 18.7 µM
O=C(Nc1nc2c(s1)CN(Cc1ccccc1)CC2)c1cccc(S(=O)(=O)N2CCc3ccccc32)c1 | > 38 µM (inactive)
O=C(O)c1cc(-c2ccco2)nc2cc3ccccc3cc12 | > 38 µM (inactive)
NC(=S)NNc1cccc2cccnc12 | 0.987 µM
COc1ccc(C(=O)N2C(=S)NC(=O)/C2=C\c2ccc(C)cc2)cc1 | > 38 µM (inactive)
Cc1nc2c3ccccc3nc(NNC(=O)CCC(=O)NC(C)C)n2n1 | < 0.3 µM
CCOC(=O)c1ccc(-c2ccc(/C=C(\C#N)C(=O)NCC3CCCO3)o2)cc1 (stereo not drawn) | > 38 µM (inactive)
